According to ChEMBL document CHEMBL1201862, “PubChem BioAssay data set” (2004):
Activity calls are given as the source filed them.

Legend:
[1] = toxicity to HepG2 liver cells – cell-based, plate reader, dry powder, set 6, cytotoxicity control, dose response (AID 743311); assay type: functional
cells [2] = settings: HEK293
Major prion protein = Major prion protein (Homo sapiens, UniProt P04156); assay type: functional, cell-based
cells [3] = test: cells
[4] = Counterscreen for […] of the human trace amine associated receptor 1 (TAAR1): Fluorescence-based cell-based high throughput dose response assay to identify nonselective Ga16 agonists.; assay type: functional
[5] = molecular target: T1, Trace amine-associated receptor 1 (Homo sapiens, UniProt Q96RJ0); test: Fluorescence-based cell-based high throughput dose response assay to identify antagonists of the human trace amine associated receptor 1 (TAAR1).; assay type: functional
T1 sequence (Q96RJ0 whole entry): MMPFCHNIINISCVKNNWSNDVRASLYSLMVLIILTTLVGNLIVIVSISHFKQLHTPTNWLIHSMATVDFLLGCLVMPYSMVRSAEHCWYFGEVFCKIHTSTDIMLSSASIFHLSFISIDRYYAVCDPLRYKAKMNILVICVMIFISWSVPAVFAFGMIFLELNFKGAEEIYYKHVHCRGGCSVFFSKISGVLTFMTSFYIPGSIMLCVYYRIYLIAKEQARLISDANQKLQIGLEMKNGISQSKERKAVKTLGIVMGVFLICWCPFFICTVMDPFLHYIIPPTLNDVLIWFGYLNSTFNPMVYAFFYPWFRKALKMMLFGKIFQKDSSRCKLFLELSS

[6] = Counterscreen for antagonists of the human trace amine associated receptor 1 (hTAAR1): Fluorescence-based cell-based high throughput dose response assay to identify nonselective Ga16 antagonists.; assay type: functional
[7] = molecular target: T1, Trace amine-associated receptor 1; test: Counterscreen for antagonists of the human trace amine associated receptor 1 (hTAAR1): Fluorescence-based cell-based high throughput dose response assay to identify TAAR1 Agonists.; assay type: functional
[8] = glucagon-like peptide-1 release potency in STC-1, concentration-response, half-maximal inhibitory concentration in the STC-1 line (AID 1117345); assay type: functional, cell-based
[9] = Potency on glucagon-like peptide 1 release, dose-response in NCI-H716 cell line, half maximal inhibitory concentration (AID 1117344); assay type: functional, cell-based
Paired box protein Pax-8 = Paired box protein Pax-8 (Homo sapiens, UniProt Q06710); test: PAX8 transcriptional activity inhibition in RMG-I – RMG-I cells, luciferase, cherry-pick, dose response (AID 687027); assay type: functional, cell-based;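 further: luciferase reporter driven by Pax8 target thyroperoxidase promoter measured by SteadyGlo luminescence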
[10] = A2780 cell killing – plate reader, dry powder samples, cytotoxicity control, dose response (AID 743046); assay type: functional, cell-based
Galanin receptor type 3 = molecular target: T2, Galanin receptor type 3 (Homo sapiens, UniProt O60755); test: Fluorescence-based cell-based primary high throughput dose response assay to identify antagonists of the Galanin Receptor 3 (GalR3).; assay type: functional
T2 sequence (O60755 whole entry): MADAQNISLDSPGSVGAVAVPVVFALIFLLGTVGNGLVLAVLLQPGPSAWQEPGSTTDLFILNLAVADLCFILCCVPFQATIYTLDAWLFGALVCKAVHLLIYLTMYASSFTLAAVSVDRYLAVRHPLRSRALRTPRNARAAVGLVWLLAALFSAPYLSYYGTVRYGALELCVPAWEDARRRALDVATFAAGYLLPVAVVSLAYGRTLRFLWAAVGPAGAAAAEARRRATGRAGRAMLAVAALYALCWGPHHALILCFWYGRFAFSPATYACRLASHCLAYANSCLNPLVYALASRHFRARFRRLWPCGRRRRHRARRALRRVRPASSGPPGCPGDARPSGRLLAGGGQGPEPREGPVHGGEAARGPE

cells [11] = assay type: functional, cell-based; settings: HEK-CNG
[12] = molecular target: COUP transcription factor 2 (Homo sapiens, UniProt P24468); test: Luminescence-based cell-based high throughput dose response assay to identify inhibitors of COUP-TFII (NR2F2).; assay type: functional;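 further: HEK293 cells transiently cotransfected with COUP-TFII expression vector and reporter; luciferase reporter luminescence driven by COUP-TFII from the pX2-168 reporter plasmid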
[13] = molecular target: T3, Oxysterols receptor LXR-beta (Homo sapiens, UniProt P55055); assay type: functional, cell-based;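 further: Cell-based luminescence dose-response assay of agonist activity at LXR, run as a confirmatory counterscreen to a daf-12 agonist screen; HEK293 cells with Gal4-LXR fusion and GAL4-driven luciferase reporter; agonist potency from rising luciferase signal of a Gal4-LXR reporter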
T3 sequence (P55055 whole entry): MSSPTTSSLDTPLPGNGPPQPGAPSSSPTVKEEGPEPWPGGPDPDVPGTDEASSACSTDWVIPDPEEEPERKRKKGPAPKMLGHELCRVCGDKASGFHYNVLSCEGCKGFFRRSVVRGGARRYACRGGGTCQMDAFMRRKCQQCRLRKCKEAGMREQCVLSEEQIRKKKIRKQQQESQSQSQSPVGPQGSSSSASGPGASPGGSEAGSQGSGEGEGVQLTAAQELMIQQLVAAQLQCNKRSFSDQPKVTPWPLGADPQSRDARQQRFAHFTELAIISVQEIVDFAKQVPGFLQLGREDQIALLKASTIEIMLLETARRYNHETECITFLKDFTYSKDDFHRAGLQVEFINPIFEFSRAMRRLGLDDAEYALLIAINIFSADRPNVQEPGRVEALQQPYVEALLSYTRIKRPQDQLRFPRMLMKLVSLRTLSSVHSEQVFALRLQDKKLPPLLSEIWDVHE

cells [14] = test: cells; remark: listed apart in the source
Prothrombin = Prothrombin (Homo sapiens, UniProt P00734); test: Thrombin 1536 HTS Dose Response Confirmation. [Related pubchem assays: 1046 (Thrombin 1536 HTS; hits were confirmed in this assay)]; assay type: functional
fMet-Leu-Phe receptor = fMet-Leu-Phe receptor (Homo sapiens, UniProt P21462); test: formyl peptide receptor binders – dose response (AID 519); assay type: functional
Protein Tat = Protein Tat (Human immunodeficiency virus type 1 group M subtype B (isolate HXB2)(HIV-1), UniProt P04608); assay type: functional;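 further: tat binding to TAR RNA read out by fluorescence polarization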

For `CC(C)(C)c1ccc(OCCn2cnc3ccccc32)c(Cl)c1`, which AC50 [1] is on record?
Its AC50 is 36.6 µM (active).

And the AC50 (cells [2])?
The AC50 was 37.4 µM (active).

For `CC(C)(C)c1nc(SCC(=O)NNC(=O)c2ccccc2)c2ccccc2n1`, which IC50 (Major prion protein) is on record?
Its IC50 is 5.46 µM (active).

And the IC50 (cells [3])?
The IC50 was > 138 µM (inactive).

Which results are given for `O=[N+]([O-])c1ccc(-c2c(-c3ccccc3)ncc3ccc(F)cc23)cc1`?
EC50 [4]: > 29.9 µM (inactive); IC50 [5]: 1.83 µM (active); IC50 [6]: > 29.9 µM (inactive); EC50 [7]: > 29.9 µM (inactive)

With `O=c1oc2ccccc2c(O)c1C(CC(O)c1ccc(-c2ccc(Br)cc2)cc1)c1ccccc1` (configuration not stated) [BROMODIOLONE] as the molecule, how does the IC50 [8] read?
Its IC50 is 9.16 µM (inactive).

And the IC50 [9]?
The IC50 was > 40 µM (inactive).

Which IC50 (Major prion protein) does the source give for `O=C(COc1ccc2ccccc2c1Br)Nc1ccncc1` here?
The IC50 was 10.4 µM (inactive).

What about the IC50 (cells [3]) of the same molecule?
The IC50 was > 138 µM (inactive).

With `C[C@H]1CN([C@@H](C)CO)C(=O)Cc2cc(NC(=O)Nc3ccc(C(F)(F)F)cc3)ccc2O[C@H]1CN(C)C(=O)Nc1ccc(C(F)(F)F)cc1` as the molecule, how does the AC50 (Paired box protein Pax-8) read?
Its AC50 is 13 µM (active).

What about the AC50 [10] of the same molecule?
Its AC50 is 25.8 µM (active).

For `CC(C)c1ccc(CN2CCN(C(=O)CSc3nnnn3C3CC3)CC2)cc1`, which IC50 (Galanin receptor type 3) is on record?
Its IC50 is 1.34 µM (active).

And the EC50 (cells [11])?
The EC50 was > 29.9 µM (inactive).

And the IC50 [12]?
The IC50 was 8.28 µM (active).

What does the source list for `Cc1ccsc1/C=N/N=C/c1sccc1C`?
EC50 [13]: > 67.5 µM (inactive); EC50 (cells [14]): > 67.5 µM (inactive)

Which results are given for `CN1C(=O)/C(=C2\SC(=S)N(C(CCC(=O)O)C(=O)O)C2=O)c2ccccc21` (configuration not stated)?
IC50 (Prothrombin): > 50 µM (not active); Ki (fMet-Leu-Phe receptor): > 66.7 µM (inactive)

For `Cc1cc(-c2csc(NC(=O)c3cc4ccccc4o3)n2)c(C)n1C`, which IC50 (Protein Tat) is on record?
The IC50 was > 100 µM (active).
